Laboratory results published in patent EP0183129A1, “Quinolonecarboxylic acid derivatives” (KYORIN PHARMACEUTICAL CO., LTD., priority 1984, dated 1986).
≈ marks a conversion by molar mass, not a printed value. Like-named read-outs stand apart in the source and are kept apart here.

Key:
S. aureus Smith = assay: In vitro antibacterial activity, MIC (standard strain); type: cell-based, Staphylococcus aureus; conditions: Staphylococcus aureus, S. aureus Smith, 10^6 cells/ml, standard strain
[1] = tested on: Streptococcus pyogenes S-8; assay: as above; type: cell-based; conditions: S8; Streptococcus pyogenes S-8; 10^6 cells/ml; standard strain; read-out: MIC
S. pyogenes IID 692 = assay: as above; type: cell-based; conditions: Streptococcus pyogenes, IID692; S. pyogenes IID 692; 10^6 cells/ml; standard strain; read-out: MIC
S. faecalis IID 682 = assay: as above; type: cell-based; conditions: Enterococcus faecalis, IID682; S. faecalis IID 682; 10^6 cells/ml; standard strain; read-out: MIC
[2] = tested on: Escherichia coli NIHJ JC-2; assay: as above; type: cell-based; conditions: Escherichia coli, NIHJJC2, Escherichia coli NIHJ JC-2; 10^6 cells/ml; standard strain; read-out: MIC
E. coli ML 4707 = assay: as above; type: cell-based; conditions: Escherichia coli, ML4707; E. coli ML 4707; 10^6 cells/ml; standard strain; read-out: MIC
[3] = tested on: Citrobacter freundii IID 976; assay: as above; type: cell-based; conditions: IID976; Citrobacter freundii IID 976; 10^6 cells/ml; standard strain; read-out: MIC
[4] = tested on: Klebsiella pneumoniae KY(GN)6445; assay: as above; type: cell-based; conditions: Klebsiella pneumoniae KY(GN)6445; 10^6 cells/ml; standard strain; read-out: MIC
K. pneumoniae 1-220S = assay: as above; type: cell-based; conditions: Klebsiella pneumoniae, 1220S; K. pneumoniae 1-220S; 10^6 cells/ml; standard strain; read-out: MIC
Shigella sonnei IID 969 = assay: as above; type: cell-based; conditions: IID969, 10^6 cells/ml
Method: Experiment-1 In vitro antibacterial activity
The in vitro antibacterial activity against gram-positive and gram-negative bacteria has been investivated.
The minimum inhibitory concentration (MIC) was determined in accordance with the method recommended by Japan Society of Chemotherapy.

[5] = tested on: Yersinia enterocolitica IID 981; assay: as above; type: cell-based; conditions: IID981; Yersinia enterocolitica IID 981; 10^6 cells/ml; standard strain; read-out: MIC
S. marcescens GN 7577 = assay: as above; type: cell-based; conditions: Serratia marcescens, GN7577; S. marcescens GN 7577; 10^6 cells/ml; standard strain; read-out: MIC
P. aeruginosa IFO 12689 = assay: as above; type: cell-based, Pseudomonas aeruginosa; conditions: Pseudomonas aeruginosa, IFO12689; P. aeruginosa IFO 12689; 10^6 cells/ml; standard strain; read-out: MIC
[6] = tested on: Alcaligenes faecalis 0104002; assay: as above; type: cell-based; conditions: Alcaligenes faecalis, 0104002, Alcaligenes faecalis 0104002; 10^6 cells/ml; standard strain; read-out: MIC
B. fragilis 0558 = assay: as above; type: cell-based, Bacteroides fragilis; conditions: Bacteroides fragilis, 0558, B. fragilis 0558; 10^6 cells/ml; standard strain; read-out: MIC
[7] = tested on: Fusobacterium varium KYA 8501; assay: as above; type: cell-based; conditions: Fusobacterium varium, KYA8501, Fusobacterium varium KYA 8501; 10^6 cells/ml; standard strain; read-out: MIC
S. pneumoniae 3227 = assay: In vitro antibacterial activity, MIC (clinical isolates); type: cell-based; conditions: Streptococcus pneumoniae; S. pneumoniae 3227; 10^6 cells/ml; clinical isolate; read-out: MIC
S. pyogenes 3130 = assay: as above; type: cell-based; conditions: Streptococcus pyogenes, read-out: MIC
S. pyogenes 4340 = assay: as above; type: cell-based; conditions: Streptococcus pyogenes; S. pyogenes 4340; 10^6 cells/ml; clinical isolate; read-out: MIC
S. agalactiae 4342 = assay: as above; type: cell-based; conditions: Streptococcus agalactiae; S. agalactiae 4342; 10^6 cells/ml; clinical isolate; read-out: MIC
S. agalactiae 4468 = assay: as above; type: cell-based; conditions: Streptococcus agalactiae; S. agalactiae 4468; 10^6 cells/ml; clinical isolate; read-out: MIC
S. faecalis 49 = assay: as above; type: cell-based; conditions: Enterococcus faecalis; S. faecalis 49; 10^6 cells/ml; clinical isolate; read-out: MIC
S. faecalis 402 = assay: as above; type: cell-based; conditions: Enterococcus faecalis; S. faecalis 402; 10^6 cells/ml; clinical isolate; read-out: MIC
E. coli ML4707 = assay: In vivo antibacterial activity against systemic infection in mice; parameters: species or system mice (ICR-S); conditions: for ED50: Escherichia coli, ML4707, mice (ICR-S), oral, an hour after intraperitoneal infection, challenge dose 2.7 x 10^6 ~ 8.8 x 10^6 cfu/mouse, read-out: ED50 E. coli ML4707
Method: Experiment-2 In vivo antibacterial activity against systemic infection in mice (ICR-S)
The infections were produced by intraperitoneal injection of a suspension of the bacterial culture corresponding to the germ studied. The products were administered orally at an hour after the infection.

NCC1CCN(c2c(F)cc3c(=O)c(C(=O)O)cn(C4CC4)c3c2Br)C1 (stereo not drawn) [Example 15, 7-(3-Aminomethyl-l-pyrrolidinyl)-8-bromo-l-cyclopropyl-6-fluoro-1,4-dihydro-4-oxo-3-quinolinecarboxylic acid] was tested, and the MIC (S. aureus Smith) was 0.0125 µg/mL (≈ 0.0295 µM), the MIC [1] was 0.05 µg/mL (≈ 0.118 µM) and the MIC (S. pyogenes IID 692) was 0.05 µg/mL (≈ 0.118 µM). For the same compound, the MIC (S. faecalis IID 682) was 0.1 µg/mL (≈ 0.236 µM), the MIC [2] was ≤ 0.0063 µg/mL and the MIC (E. coli ML 4707) was 0.025 µg/mL (≈ 0.0589 µM). It also gave an MIC [3] of 0.025 µg/mL (≈ 0.0589 µM), an MIC [4] of 0.025 µg/mL (≈ 0.0589 µM) and an MIC (K. pneumoniae 1-220S) of 0.05 µg/mL (≈ 0.118 µM). It also gave an MIC (Shigella sonnei IID 969) of 0.0125 µg/mL (≈ 0.0295 µM), an MIC [5] of 0.05 µg/mL (≈ 0.118 µM) and an MIC (S. marcescens GN 7577) of 0.78 µg/mL (≈ 1.84 µM). The MIC (P. aeruginosa IFO 12689) was 0.78 µg/mL (≈ 1.84 µM), the MIC [6] was 0.2 µg/mL (≈ 0.471 µM) and the MIC (B. fragilis 0558) was ≤ 0.05 µg/mL. For the same compound, the MIC [7] was 0.39 µg/mL (≈ 0.919 µM), the MIC (S. pneumoniae 3227) was 0.05 µg/mL (≈ 0.118 µM) and the MIC (S. pyogenes 3130) was 0.05 µg/mL (≈ 0.118 µM). It also gave an MIC (S. pyogenes 4340) of 0.05 µg/mL (≈ 0.118 µM), an MIC (S. agalactiae 4342) of 0.1 µg/mL (≈ 0.236 µM) and an MIC (S. agalactiae 4468) of 0.05 µg/mL (≈ 0.118 µM). The MIC (S. faecalis 49) was 0.2 µg/mL (≈ 0.471 µM), the MIC (S. faecalis 402) was 0.2 µg/mL (≈ 0.471 µM) and the ED50 (E. coli ML4707) was 7.1 mg/kg.

CNCC1CCN(c2c(F)cc3c(=O)c(C(=O)O)cn(C4CC4)c3c2Br)C1 (stereo not drawn) [Example 16, 8-Bromo-1-cyclopropyl-6-fluoro-1,4-dihydro-7-(3-methylaminomethyl-l-pyrrolidinyl)-4-oxo-3-quinolinecarboxylic acid] showed an MIC (S. aureus Smith; read-out: MIC) of 0.0125 µg/mL (≈ 0.0285 µM), an MIC [1] of 0.05 µg/mL (≈ 0.114 µM) and an MIC (S. pyogenes IID 692) of 0.1 µg/mL (≈ 0.228 µM). For the same compound, the MIC (S. faecalis IID 682) was 0.05 µg/mL (≈ 0.114 µM), the MIC [2] was 0.0125 µg/mL (≈ 0.0285 µM) and the MIC (E. coli ML 4707) was 0.025 µg/mL (≈ 0.057 µM). The MIC [3] was 0.05 µg/mL (≈ 0.114 µM), the MIC [4] was 0.05 µg/mL (≈ 0.114 µM) and the MIC (K. pneumoniae 1-220S) was 0.1 µg/mL (≈ 0.228 µM). It also gave an MIC (Shigella sonnei IID 969) of 0.025 µg/mL (≈ 0.057 µM), an MIC [5] of 0.1 µg/mL (≈ 0.228 µM) and an MIC (S. marcescens GN 7577) of 0.78 µg/mL (≈ 1.78 µM). It also gave an MIC (P. aeruginosa IFO 12689) of 1.56 µg/mL (≈ 3.56 µM), an MIC [6] of 0.39 µg/mL (≈ 0.89 µM) and an MIC (B. fragilis 0558) of 0.1 µg/mL (≈ 0.228 µM). The MIC [7] was 0.39 µg/mL (≈ 0.89 µM), the MIC (S. pneumoniae 3227) was 0.05 µg/mL (≈ 0.114 µM) and the MIC (S. pyogenes 3130) was 0.05 µg/mL (≈ 0.114 µM). The MIC (S. pyogenes 4340) was 0.05 µg/mL (≈ 0.114 µM), the MIC (S. agalactiae 4342) was 0.05 µg/mL (≈ 0.114 µM) and the MIC (S. agalactiae 4468) was 0.05 µg/mL (≈ 0.114 µM). For the same compound, the MIC (S. faecalis 49) was 0.1 µg/mL (≈ 0.228 µM), the MIC (S. faecalis 402) was 0.1 µg/mL (≈ 0.228 µM) and the ED50 (E. coli ML4707) was 1.9 mg/kg.

With CCNCC1CCN(c2c(F)cc3c(=O)c(C(=O)O)cn(C4CC4)c3c2Br)C1 (stereo not drawn) [Example 17, 8-Bromo-l-cyclopropyl-7-(3-ethylaminomethyl-l-pyrrolidinyl)-6-fluoro-1,4-dihydro-4-oxo-3-quinolinecarboxylic acid] the MIC (S. aureus Smith; read-out: MIC) was 0.0125 µg/mL (≈ 0.0276 µM), the MIC [1] was 0.05 µg/mL (≈ 0.111 µM) and the MIC (S. pyogenes IID 692) was 0.05 µg/mL (≈ 0.111 µM). For the same compound, the MIC (S. faecalis IID 682) was 0.05 µg/mL (≈ 0.111 µM), the MIC [2] was 0.0125 µg/mL (≈ 0.0276 µM) and the MIC (E. coli ML 4707) was 0.025 µg/mL (≈ 0.0553 µM). It also gave an MIC [3] of 0.05 µg/mL (≈ 0.111 µM), an MIC [4] of 0.05 µg/mL (≈ 0.111 µM) and an MIC (K. pneumoniae 1-220S) of 0.1 µg/mL (≈ 0.221 µM). For the same compound, the MIC (Shigella sonnei IID 969) was 0.025 µg/mL (≈ 0.0553 µM), the MIC [5] was 0.1 µg/mL (≈ 0.221 µM) and the MIC (S. marcescens GN 7577) was 0.78 µg/mL (≈ 1.72 µM). The MIC (P. aeruginosa IFO 12689) was 3.13 µg/mL (≈ 6.92 µM), the MIC [6] was 0.39 µg/mL (≈ 0.862 µM) and the MIC (B. fragilis 0558) was ≤ 0.05 µg/mL. The MIC [7] was 0.39 µg/mL (≈ 0.862 µM), the MIC (S. pneumoniae 3227) was 0.05 µg/mL (≈ 0.111 µM) and the MIC (S. pyogenes 3130) was 0.05 µg/mL (≈ 0.111 µM). It also gave an MIC (S. pyogenes 4340) of 0.05 µg/mL (≈ 0.111 µM), an MIC (S. agalactiae 4342) of 0.05 µg/mL (≈ 0.111 µM) and an MIC (S. agalactiae 4468) of 0.05 µg/mL (≈ 0.111 µM). For the same compound, the MIC (S. faecalis 49) was 0.1 µg/mL (≈ 0.221 µM), the MIC (S. faecalis 402) was 0.1 µg/mL (≈ 0.221 µM) and the ED50 (E. coli ML4707) was 0.9 mg/kg. The “activity against gram-negative bacterial infections compared with the reference compounds” value (E. coli ML4707; systemic infection in mice, result in words) was “greater activity against gram-negative bacterial infections than the reference compounds”.
